Results from PubChem BioAssay (NCI).
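Following 48 hours of exposure in 96-well plates, responses at five concentrations were used to interpolate endpoints linearly. GI50 = concentration required for 50% inhibition of growth. TGI marks complete inhibition of growth.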

How the values were obtained:
Test in all cases: growth of human tumour cells (NCI), 48 h
NCI-H460 lung = system: NCI-H460 lung
EKVX NSCLC = system: EKVX NSCLC
U251 CNS = system: U251 CNS
ACHN renal = system: ACHN renal
HCT-15 colon = system: HCT-15 colon
NCI-H522 lung = system: NCI-H522 lung
LOX IMVI melanoma = system: LOX IMVI melanoma
K-562 leukemia = system: K-562 leukemia
HS 578T breast = system: HS 578T breast
CCRF-CEM leukemia = system: CCRF-CEM leukemia

SMILES | GI50 (NCI-H460 lung) [µM] | TGI (NCI-H460 lung) [µM] | GI50 (EKVX NSCLC) [µM] | TGI (EKVX NSCLC) [µM] | GI50 (U251 CNS) [µM] | TGI (U251 CNS) [µM] | GI50 (ACHN renal) [µM] | TGI (ACHN renal) [µM] | GI50 (HCT-15 colon) [µM] | TGI (HCT-15 colon) [µM] | GI50 (NCI-H522 lung) [µM] | TGI (NCI-H522 lung) [µM] | GI50 (LOX IMVI melanoma) [µM] | TGI (LOX IMVI melanoma) [µM] | GI50 (K-562 leukemia) [µM] | TGI (K-562 leukemia) [µM] | GI50 (HS 578T breast) [µM] | TGI (HS 578T breast) [µM] | TGI (CCRF-CEM leukemia) [µM] | GI50 (CCRF-CEM leukemia) [µM]
CC(C)C[C@H](NC(=O)[C@@H](O)[C@H](N)Cc1ccc([N+](=O)[O-])cc1)C(=O)O | > 25 | > 25 | > 25 | > 25 | > 25 | > 25 | > 25 | > 25 | > 25 | > 25 | > 25 | > 25 | > 25 | > 25 | > 25 | > 25 | > 25 | > 25 |  | 
CCCC(Sc1ccccc1)P(=O)(c1ccccc1)c1ccccc1 (centres undefined) |  | > 100 |  | 84.1 |  | > 100 |  | 61.4 |  |  |  | > 100 |  | > 100 |  | > 100 |  |  | > 100 | 
Cc1ccc(Sc2ccc(C)cc2[N+](=O)[O-])c([N+](=O)[O-])c1 |  | > 100 |  | > 100 |  | > 100 |  | > 100 |  | > 100 |  | > 100 |  | > 100 |  | > 100 |  |  | > 100 | 
CN(C(=O)c1ccncc1)c1ccccc1 |  | > 100 |  | > 100 |  | > 100 |  | > 100 |  | > 100 |  | > 100 |  | > 100 |  | > 100 |  | > 100 |  | 
CCOc1ccccc1/C=N\N=C(\N)N/N=C/c1ccccc1OCC | 3.16 | > 100 | 4.59 | > 100 | 3.35 | > 100 | 3.82 | > 100 | 1.46 | > 100 |  |  | 4.68 | > 100 | 0.707 | > 100 | 1.65 | 7.26 | > 100 | 3.06
Cc1cn2c(/C=N/Nc3ccccn3)c(-c3ccc(Cl)c([N+](=O)[O-])c3)nc2s1 | 5.3 | 22.3 | 21.6 | > 50 | 8.22 | 15.4 | 6.89 | 15.5 | 16 | > 50 | 7.35 | 26.5 | 8.03 | 16.5 | 26.7 | > 50 | 12 | 39.4 |  | 
C1CCOC2(CCC3(CC2)OCCCCO3)OC1 |  | > 100 |  |  |  | > 100 |  | > 100 |  | > 100 |  | > 100 |  |  |  | > 100 |  |  | > 100 | 
COc1ccc(-c2nn(-c3cccc(Cl)c3)cc2-c2cc(-c3ccccc3)nc(N)n2)cc1 |  |  | 2.32 | 15 | 1.59 | 3.03 | 4.58 | 15.8 | 3.6 | 16.1 | 1.88 | 3.53 |  |  | 1.92 | 5.37 | 3.03 | 18.4 | 6.63 | 2.13
C=CCC(OCCOCC)c1cc(OCCOCC)ccc1OC (centres undefined) |  | > 100 |  | > 100 |  | > 100 |  | > 100 |  | > 100 |  | > 100 |  | > 100 |  | > 100 |  |  | > 100 | 
O=C1NC2C=CN(Cc3ccccc3)C=C2C(=O)N2CCCC12 (centres undefined) |  | > 100 |  | > 100 |  | > 100 |  | > 100 |  | > 100 |  | > 100 |  |  |  |  |  |  | > 100 | 
C[C@@H](NC1CCC[C@H]1O)c1ccccc1 (some centres undefined) |  | > 100 |  | > 100 |  | > 100 |  | > 100 |  | > 100 |  |  |  | > 100 |  | > 100 |  |  | > 100 | 
COc1cc(/C=C/C(=O)c2sc(NNC(C)=O)nc2C)ccc1O |  | > 100 |  | > 100 |  | > 100 |  | > 100 |  | > 100 |  | > 100 |  | > 100 |  | > 100 |  |  | > 100 | 
N=C(N)c1ccc(COc2ccccc2OCc2ccc(C(=N)N)cc2)cc1 | 20.9 | > 100 | 38.5 | > 100 | 25.6 | 65.4 | > 100 | > 100 | 75.6 | > 100 | 99.5 | > 100 |  |  | 34.8 | > 100 | 18.2 | 52.6 | > 100 | 33.1
N.N.NCCCCCCN.O=C([O-])CC(=O)[O-].O=C([O-])CC(=O)[O-].[Pt+4].[Pt+4] | 6.59 | > 100 | > 100 | > 100 | 47.7 | > 100 | 36.1 | > 100 | > 66.1 | > 100 | 29 | > 100 | > 100 | > 100 | > 86.3 | > 100 |  |  | > 100 | 15.6
COC(=O)C1=C(C(=O)OC)SC(=C(N=Nc2ccccc2)c2ccccc2)S1 |  | > 100 |  | > 100 |  | > 100 |  | > 100 |  | > 100 |  | > 100 |  | > 100 |  | > 100 |  |  | > 100 | 
CCOC(=O)c1nc(Nc2ccc(Cl)cc2)c2ccccc2n1 | 9.44 | 23.7 | 13 | 44.1 | 8.86 | 18.5 | 9.3 | 19.2 | 14.9 | > 50 | 10.5 | 25.8 | 9.92 | 18.6 | 46 | > 50 | 11.3 | 27.2 |  | 
O=C1CCC2(c3ccccc3)Nc3ncccc3N12 (centres undefined) |  | > 100 |  | > 100 |  | > 100 |  | > 100 |  | > 100 |  | > 100 |  | > 100 |  | > 100 |  |  | > 100 | 
C=CC1C(OC2OC(CO)C(O)C(O)C2O)OC=C(C(=O)OC)C1CC=O (centres undefined) |  |  |  | > 100 |  | > 100 |  | > 100 |  | > 100 |  |  |  | > 100 |  | > 100 |  |  |  | 
